Values of other authors, collected in patent publication US12367980B2, “Methods for predicting treatment response in cancers” (Cancer Research Technology Limited, priority 2020, dated 2025).
Like-named read-outs stand apart in the source and are kept apart here.

Tested on: ovarian cancer patients
Details: for response rate to Doxorubicin monotherapy: expected rate from clinical trials

COc1cccc2c1C(=O)c1c(O)c3c(c(O)c1C2=O)C[C@@](O)(C(=O)CO)C[C@@H]3O[C@H]1C[C@H](N)[C@H](O)[C@H](C)O1 [Doxorubicin, doxorubicin]
response rate to Doxorubicin monotherapy (patients resistant to platinum chemotherapy): 18%
response rate to doxorubicin (platinum resistant ovarian cancer patients): 18%
response rate to doxorubicin (platinum sensitive ovarian cancer patients): 52%
response rate to Doxorubicin monotherapy (platinum sensitive patients (Gordon et al., 2001)): 28%
